The target of assay [1] is T1, GPR91 (Homo sapiens, UniProt Q9BXA5).
T1 sequence (Q9BXA5 1-334): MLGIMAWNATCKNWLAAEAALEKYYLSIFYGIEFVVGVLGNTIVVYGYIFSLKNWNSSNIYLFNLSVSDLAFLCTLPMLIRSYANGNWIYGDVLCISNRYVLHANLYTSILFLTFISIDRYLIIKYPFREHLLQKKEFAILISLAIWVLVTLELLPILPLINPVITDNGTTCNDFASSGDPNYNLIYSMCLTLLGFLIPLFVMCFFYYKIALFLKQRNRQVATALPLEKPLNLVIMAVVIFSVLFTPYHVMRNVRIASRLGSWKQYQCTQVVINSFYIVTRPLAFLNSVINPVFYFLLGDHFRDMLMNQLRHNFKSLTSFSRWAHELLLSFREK
Nature of the assay: Calcium flux in HEK293. In kind it is cell-based. The note with it: read-out: Test compound pIC50, Calcium flux in HEK293 (converted). From the text:
(§1) GPR91 inhibition can be measured according to the art. For example, GPR91 inhibition may be measured by testing a compound in a G-protein functional assay such as Calcium flux, IP1 accumulation and GTPyS. GPR91 inhibition may be measured by testing a compound in phenotypic assays which measures a cytokine response that is relevant to the indication.

Assay [2] concerns the target T1, GPR91. Nature of the assay: Succinate-stimulated secretion of PGD2 and cytokines/chemokines in LUVA cells. In kind it is cell-based. More on the design: host or cells: LUVA. The note with it: LUVA cells, compound 1 hr prior to succinate stimulation. The procedure:
After the incubation, the cell suspension was centrifuged, and the supernatant was collected for downstream readouts of secreted factors including Prostaglandin D2 (PGD2) by ELISA (Cayman Chemical PGD2 EIA kit), and cytokines/chemokines TNFa, MIP1a and Eotaxin-3 by MSD (Mesoscale V-Plex Plus proinflammatory panel 1, Plus Chemokine Panel 1).
A GPR91 knockout in LUVA cells (received from Kerafast Inc) was generated using CRISPR technology with a single guide following protocols known in the art. The guide RNA sequence used was […] (SEQ ID NO: 4). The guide RNA cut location was chromosome 3: 151,880,674.

The subject of assay [3] is human hair follicles. The assay is described as follows: Versican immunofluorescence in dermal papilla of hair follicles. In kind it is cell-based. Conditions: healthy hair follicles. From the text:
Versican immunofluorescence (as previously described in Soma et al J Dermatol Sci 2005, doi: 10.1016/j.jdermsci.2005.03.010) was used to determine hair follicle inductive properties.

The target in assay [4] is T1, GPR91. The assay is described as follows: IP1 accumulation. It counts as cell-based. Details: host or cells: LUVA. The note with it: read-out: Test compound pIC50, IP1 (converted).
Text: as §1

Assay [5] deals with human hair follicles. Nature of the assay: RNA sequencing of ex vivo cultured hair follicles. It counts as cell-based. The note with it: affected scalp regions, 5 nM, 24 hours. The protocol: RNA extraction, sequencing and analysis were performed as follows; RNA from n=2-3 hair follicles per group was extracted using […]® PicoPure® RNA Isolation Kit (ThermoFisher) including a Dnase digestions step using the Rnase-Free Dnase Set from Qiagen and stored at −80 degrees Celsius until analysed. RNA concentration, purity and integrity were assessed before sequencing. Sequencing was performed on a NovaSeq 6000 using 2×100 bp read length with an output of approximately 30 M clusters (6 Gb per sample). Demultiplexing of the sequencing reads was performed with Illumina bcl2fastq (2.20).
Briefly, DESeq2 first creates a pseudo-reference sample (row-wise geometric mean) and calculates the ratio of each sample to this reference. Then, the normalization factor for each sample (size factor) is calculated using the median value of all ratios for a given sample. Normalized count values are created by dividing each raw count value in a given sample by that sample's normalization factor. Finally, DESeq2 calculates p values and adjusted p values for genes of two groups by allowing the shrinkage of the log 2 fold changes when the information for a gene is low (low counts or high dispersion values). For manual calculation of fold change (FC) between two groups, the ratio of the normalized read counts was used. And FC is considered relevant or significant if it is greater of equal to 2 (upregulation) or smaller that or equal to 0.5 (downregulation).

For assay [6], the system named is human hair follicles. The assay is described as follows: Microscopic hair cycle staging in ex vivo hair follicle organ culture. It counts as cell-based. Conditions: donors with healthy hair follicles. The source says:
Compounds, at the concentrations indicated, are present throughout the duration of the hair follicle culture at 0.1% DMSO.

Assay [7] deals with human hair follicles. Nature of the assay: Dermal papilla area and melanin clumping, Fontana-Masson stained ex vivo hair follicles. It counts as cell-based. The procedure:
Microscopic hair cycle staging: Hair cycle staging is performed at the end of the culture and can be determined according to several established parameters as described previously. Hair follicles are microscopically evaluated for the hair cycle staging using Masson-Fontana histochemistry and Ki-67/TUNEL immunostaining as previously described. […] Melanin clumps are indicated on the images by the orange arrows, and are counted in the Masson-fontana stained section at the end of the culture in a defined region of interest starting at the Auber's line and including the precortical hair matrix as described previously.

The target of assay [8] is T1, GPR91. Nature of the assay: GTPyS G-protein functional assay. In kind it is biochemical. Details: host or cells: LUVA. Conditions: read-out: Test compound pIC50, GTPyS (converted).
Text: as §1

Structures are written as SMILES.

In the case of `CN1CCN(Cc2ccc(-c3cccc(C(=O)Nc4ccccc4CC(=O)O)c3)cc2)CC1` [Compound 1, 2-(2-(4′-((4-methylpiperazin-1-yl)methyl)-[1,1′-biphenyl]-3-carboxamido)phenyl)acetic acid], the IC50 on GPR91 [1] is 39.8 nM; on GPR91 [2] (read-out: Test compound pIC50, MIP-1a (converted)), 79.4 nM; at GPR91 [4], 100 nM; at GPR91 [8], 31.6 nM. Besides, on GPR91 [2], the “Test compound pIC50, PGD2” value stood at 7.6. Also, in the assay on human hair follicles [3], the “versican expression in the dermal papilla” value is “Increased versican expression”. Besides, the “genes of apoptotic processes, cell chemotaxis and immune function” value in the assay with human hair follicles [5] is “significant downregulation in genes that play a role in apoptotic processes, cell chemotaxis and immune function”. Moreover, in the assay on human hair follicles [5], the “genes related to metabolic processes and biosynthesis of macromolecules” value is “increase in genes related to increased metabolic processes and biosynthesis of macromolecules”. The “hair keratins gene expression” value with human hair follicles [5] is given as “significant upregulation in hair keratins”. The “percentage of hair follicles in the anagen phase” value in the assay with human hair follicles [6] is listed as “increases the percentage of hair follicles in the anagen phase”. Besides, the “size of the dermal papilla area, representative images” value in the assay with human hair follicles [7] (5 uM and 50 uM) was “increased size of the dermal papilla area”. The “dermal papilla area, AGA” value in the assay with human hair follicles [7] (AGA hair follicles, affected/balding region of the scalp) was “increases the dermal papilla area”. In the assay with human hair follicles [7] (healthy hair follicles), the dermal papilla area result was “increases the dermal papilla area”.

Values taken from patent US20240165108A1, “NOVEL USE” (GlaxoSmithKline Intellectual Property Development Limited, priority 2022, published 2024).
